US8637525B2, “Compounds for the reduction of beta-amyloid production” (Bristol-Myers Squibb Company, priority 2009, dated 2014)
pIC50: −log10 of the molar value.

What follows are compounds tested on Aβ1-42 production (assay: Cellular assay for inhibition of Aβ1-42 production (H4 APP751 SWE clone 8.20)). Conditions: 19 h, H4 APP751 SWE clone 8.20 cells, 19 h incubation; class symbols; read-out: Activity Rating (Aβ42 cellular IC50).
Type: cell-based
Outline: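 Secreted peptide was quantified with a two-antibody homogeneous format combining Wallac-labelled 565, which recognises the Aβ42 end, and APC-labelled 26D6 at 0.8 and 75 ng/well respectively. Antibodies were diluted in 40 mM Tris-HCl, pH 7.4, 0.2% BSA and left overnight at 4 °C after a 19 h compound incubation.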

pIC50	Structure (SMILES)
7.00 to 8.00	CCNc1nc(Nc2ccc(-n3cnc(C)n3)c(F)c2)nc2c1CN(C(=O)C1CC1)CC2c1ccccc1 (centres unmarked) [Example 143, cyclopropyl(4-(ethylamino)-2-(3-fluoro-4-(3-methyl-1H-1,2,4-triazol-1-yl)phenylamino)-8-phenyl-7,8-dihydropyrido[4,3-d]pyrimidin-6(5H)-yl)methanone]
7.00 to 8.00	CCNc1nc(Nc2ccc(-n3ncnc3C)c(F)c2)nc2c1CN(C(=O)C1CC1)CC2c1ccccc1 (centres unmarked) [Example 144, cyclopropyl(4-(ethylamino)-2-(3-fluoro-4-(5-methyl-1H-1,2,4-triazol-1-yl)phenylamino)-8-phenyl-7,8-dihydropyrido[4,3-d]pyrimidin-6(5H)-yl)methanone]
7.00 to 8.00	CCNc1nc(Nc2ccc(-n3cnc(C)n3)c(F)c2)nc2c1CN(CC(F)(F)F)CC2c1ccccc1 (centres unmarked) [Example 145, N4-ethyl-N2-(3-fluoro-4-(3-methyl-1H-1,2,4-triazol-1-yl)phenyl)-8-phenyl-6-(2,2,2-trifluoroethyl)-5,6,7,8-tetrahydropyrido[4,3-d]pyrimidine-2,4-diamine]
7.00 to 8.00	CCNc1nc(Nc2ccc(-n3ncnc3C)c(F)c2)nc2c1CN(CC(F)(F)F)CC2c1ccccc1 (centres unmarked) [Example 146, N4-ethyl-N2-(3-fluoro-4-(5-methyl-1H-1,2,4-triazol-1-yl)phenyl)-8-phenyl-6-(2,2,2-trifluoroethyl)-5,6,7,8-tetrahydropyrido[4,3-d]pyrimidine-2,4-diamine]
7.00 to 8.00	COc1cc(Nc2nc3c(c(N(C)C)n2)CN(S(C)(=O)=O)CC3c2ccccc2)ccc1-n1cnc(Cl)c1 (centres unmarked) [Example 147, N2-(4-(4-chloro-1H-imidazol-1-yl)-3-methoxyphenyl)-N4,N4-dimethyl-6-(methylsulfonyl)-8-phenyl-5,6,7,8-tetrahydropyrido[4,3-d]pyrimidine-2,4-diamine]
8.00 to 8.82	CNc1nc(Nc2ccc(-n3cnc(Cl)c3)c(OC)c2)nc2c1CN(C)CC2c1ccccc1 (centres unmarked) [Example 148A, N2-(4-(4-chloro-1H-imidazol-1-yl)-3-methoxyphenyl)-N4,6-dimethyl-8-phenyl-5,6,7,8-tetrahydropyrido[4,3-d]pyrimidine-2,4-diamine]
7.00 to 8.00	CNc1nc(Nc2ccc(-n3cnc(C)n3)c(F)c2)nc2c1CN(C)CC2c1ccccc1 (centres unmarked) [Example 149, N2-(3-fluoro-4-(3-methyl-1H-1,2,4-triazol-1-yl)phenyl)-N4,6-dimethyl-8-phenyl-5,6,7,8-tetrahydropyrido[4,3-d]pyrimidine-2,4-diamine]
7.00 to 8.00	CNc1nc(Nc2ccc(-n3ncnc3C)c(F)c2)nc2c1CN(C)CC2c1ccccc1 (centres unmarked) [Example 150, N2-(3-fluoro-4-(5-methyl-1H-1,2,4-triazol-1-yl)phenyl)-N4,6-dimethyl-8-phenyl-5,6,7,8-tetrahydropyrido[4,3-d]pyrimidine-2,4-diamine]
8.00 to 8.82	CCNc1nc(Nc2ccc(-n3cnc(Cl)c3)c(OC)c2)nc2c1CN(C)CC2c1ccccc1 (centres unmarked) [Example 151, N2-(4-(4-chloro-1H-imidazol-1-yl)-3-methoxyphenyl)-N4-ethyl-6-methyl-8-phenyl-5,6,7,8-tetrahydropyrido[4,3-d]pyrimidine-2,4-diamine]

Same assay, conditions: 19 h, H4 APP751 SWE clone 8.20 cells, 19 h incubation; read-out: Activity Rating (Aβ42 cellular IC50), numeric value

pIC50	Structure (SMILES)
6.37	CCNc1nc(Nc2ccc(-n3cnc(C)n3)c(F)c2)nc2c1CN(C(=O)C1CC1)CC2c1ccccc1 (centres unmarked) [Example 143B, cyclopropyl(4-(ethylamino)-2-(3-fluoro-4-(3-methyl-1H-1,2,4-triazol-1-yl)phenylamino)-8-phenyl-7,8-dihydropyrido[4,3-d]pyrimidin-6(5H)-yl)methanone]
6.27	CCNc1nc(Nc2ccc(-n3ncnc3C)c(F)c2)nc2c1CN(C(=O)C1CC1)CC2c1ccccc1 (centres unmarked) [Example 144B, cyclopropyl(4-(ethylamino)-2-(3-fluoro-4-(5-methyl-1H-1,2,4-triazol-1-yl)phenylamino)-8-phenyl-7,8-dihydropyrido[4,3-d]pyrimidin-6(5H)-yl)methanone]
